The numbers were not newly measured in US20260021122A1, “CANNABINOIDS AND USES THEREOF IN TREATMENT OF A DISEASE” (TECHNION RESEARCH & DEVELOPMENT FOUNDATION LIMITED, priority 2022, published 2026), which cites them from elsewhere.

For series [1], the system named is triple-negative breast cancer. The note with it: conditioned media from CBD-treated cancer cells, literature; cited from earlier work.
Series [2] relates to MDSCs. The following applies: one study, literature; cited from earlier work.

As to `C=C(C)[C@@H]1CCC(C)=C[C@H]1c1c(O)cc(CCCCC)cc1O` [CBD, Cannabidiol], in series [1], the “levels of CCL3” value was “lowered the levels” and the “levels of Granulocyte-macrophage (GM)-CSF” value is given as “lowered the levels”.

For the molecule `CCCCC/C=C\C/C=C\C/C=C\C/C=C\CCCC(=O)OC(CO)CO` [2-AG, 2-arachidonoylglycerol], in series [2], the antitumor effects entry is “exhibits direct antitumor effects” and the “suppressive immune cell population of MDSCs” value is reported as “increasing the suppressive immune cell population of MDSCs”.
